# System: moLRP (marine origin Lactonase Related Protein), putative AHL lactonase of the PTE-Like-Lactonase (PLL) family from marine metagenomes, recombinant with 6×His …
# Assay: AHL lactonase activity of purified moLRP (hydrolysis of N-acyl homoserine lactones, Michaelis-Menten kinetics, pH indicator cresol purple)
# Assay type: biochemical, marine metagenome (Tara Oceans); MAG of phylum Chloroflexi
# Details: hydrolysis of AHLs by moLRP; Table 1; FIG. 3 (C4-HSL): E0=0.4 μM, 27° C.; error = standard deviation, at least three independent measurements
smiles,measurement,value
"CCCC(=O)CC(=O)N[C@H]1CCOC1=O [3-Oxo C6-HSL, N-(3-oxohexanoyl)-L-homoserine lactone]",Km,150 ± 13 µM
same,kcat,1.30 ± 0.10 s⁻¹
"CCCCCC(=O)CC(=O)NC1CCOC1=O (racemic) [3-Oxo C8-HSL, N-(3-oxooctanoyl)-DL-homoserine lactone]",Km,74.8 ± 11 µM
same,kcat,0.519 ± 0.02 s⁻¹
"CCCC(=O)N[C@H]1CCOC1=O [C4-HSL, N-butyryl-L-homoserine lactone]",Km,96.5 ± 15.3 µM
same,kcat,1.85 ± 0.11 s⁻¹
"CCCCCCC(=O)N[C@H]1CCOC1=O [C7-HSL, N-heptanoyl-L-homoserine lactone]",Km,112 ± 19 µM
same,kcat,0.230 ± 0.02 s⁻¹
